Source: patent publication US8765693B2, “Method of inhibiting premature aging of human skin caused by exposure to infrared radiation” (L'Oreal, priority 2012, dated 2014)

Tested on: IRA induced MMP-1
Assay: IRA-induced MMP-1 mRNA expression in primary human dermal fibroblasts
Assay type: cell-based
Settings: for Effects in IRA treated cells: inhibition (MMP-1 mRNA): 24 hrs pre-incubation, 360 J/cm^2 Infrared A, harvested 24 hrs after irradiation; for Effect on IRA induced MMP-1 in vitro (in words): primary human dermal fibroblasts
Method: Primary Human Dermal Fibroblasts
Hydrosun 500H IRA device (Hydrosun Medizintechnik GmbH, Müllheim, Germany). The IRA device was water-filtered and equipped with a black filter and emits wavelengths between 760 and 1400 nm leading to an irradiance of 360 mW/cm^2.
Baicalin: stock 44.8 mM in DMSO, and diluted to 10 μM, 25 μM
Phloretin: stock 50 mM in DMSO, and diluted to 1 μM, 5 μM, and 10 μM as final treatment conditions.
Neohesperidin dihydrochalcone: stock 710 mM in DMSO, and diluted to 100 μM, 500 μM, and 1 mM as final treatment conditions.
Cells were incubated for 24 hrs after irradiation, and then harvested to have MMP-1 mRNA analyzed.

Row | Compound | Effects in IRA treated cells: inhibition (MMP-1 mRNA) (10 μM) | Effects in IRA treated cells: inhibition (MMP-1 mRNA) (25 μM (0.001%)) | Effect on IRA induced MMP-1 in vitro (in words) | Effects in IRA treated cells: inhibition (MMP-1 mRNA) (100 μM (0.006%)) | Effects in IRA treated cells: inhibition (MMP-1 mRNA) (500 μM (0.03%)) | Effects in IRA treated cells: inhibition (MMP-1 mRNA) (1 mM (0.06%)) | Effects in IRA treated cells: inhibition (MMP-1 mRNA) (1 μM (0.00002%)) | Effects in IRA treated cells: inhibition (MMP-1 mRNA) (5 μM (0.00014%))
1 | O=C(O)[C@H]1O[C@@H](Oc2cc3oc(-c4ccccc4)cc(=O)c3c(O)c2O)[C@H](O)[C@@H](O)[C@@H]1O [Baicalin] | 26% inhibition with 10 μM | 100% inhibition with 25 μM+ (0.001%) | reduced IRA induced MMP-1 | – | – | – | – | –
2 | COc1ccc(CCC(=O)c2c(O)cc(O[C@@H]3O[C@H](CO)[C@@H](O)[C@H](O)[C@H]3O[C@@H]3O[C@@H](C)[C@H](O)[C@@H](O)[C@H]3O)cc2O)cc1O [Neohesperidin dihydrochalcone] | – | – | reduced IRA induced MMP-1 | 100% inhibition with 100 μM+ (0.006%) | 100% inhibition with 500 μM+ (0.03%) | 100% inhibition with 1 mM+ (0.06%) | – | –
3 | O=C(CCc1ccc(O)cc1)c1c(O)cc(O)cc1O [Phloretin] | 68% inhibition with 10 μM+ (0.0028%) | – | reduced IRA induced MMP-1 | – | – | – | 22% inhibition with 1 μM+ (0.00002%) | 78% inhibition with 5 μM+ (0.00014%)
